Data on 29 compounds can be found in patent US10370343B2, “[6,6] Fused bicyclic HDAC8 inhibitors” (FORMA Therapeutics, Inc., priority 2015, dated 2019).

This test concerns the target T1, Recombinant N-terminal GST tag full-length human HDAC8 (Homo sapiens, UniProt Q9BY41).
T1 construct: Recombinant N-terminal GST tag full-length human HDAC8; purchased SignalChem H90-30G-1000; host or cells: baculovirus in Sf9 insect cells
T1 sequence (Q9BY41 1-377): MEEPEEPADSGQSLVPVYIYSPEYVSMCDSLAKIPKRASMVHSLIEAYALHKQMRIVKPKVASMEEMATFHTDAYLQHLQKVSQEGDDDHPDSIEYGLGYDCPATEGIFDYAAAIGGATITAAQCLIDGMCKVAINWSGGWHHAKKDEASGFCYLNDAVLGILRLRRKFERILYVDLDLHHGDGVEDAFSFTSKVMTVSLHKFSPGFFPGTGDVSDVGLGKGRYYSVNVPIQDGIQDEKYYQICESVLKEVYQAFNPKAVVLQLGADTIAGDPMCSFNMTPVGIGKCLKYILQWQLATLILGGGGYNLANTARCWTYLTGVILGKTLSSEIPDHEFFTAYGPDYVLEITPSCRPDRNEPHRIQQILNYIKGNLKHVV
Kind of test: HDAC8 probe binding assay, time resolved fluorescence (TRF) format. The conditions noted are these: compounds grouped by IC50 range (Table 2). How it is done:
The HDAC8 probe binding assay was performed using a time resolved fluorescence (TRF) assay format. Recombinant N-terminal GST tag full-length human HDAC8 was expressed and purified from baculovirus in Sf9 insect cells (SignalChem, #[…]-1000). […] Plates were incubated for 16 hours at room temperature before time resolved fluorescence was read on the Envision (Excitation at 340 nm, and Emission at 485 nm and 535 nm, Perkin Elmer). Data from HDAC8 Assays were reported as percent inhibition (inh) compared with control wells based on the following equation: % inh=1-((FLU-AveLow)/(AveHigh-AveLow)) where FLU=measured time resolved fluorescence. AveLow=average time resolved fluorescence of no enzyme control (n=32). AveHigh=average time resolved fluorescence of DMSO control (n=32). IC50 values were determined by curve fitting of the standard 4 parameter logistic fitting algorithm included in the Activity Base software package: IDBS XE Designer Model205. Data is fitted using the Levenburg Marquardt algorithm. Ranges of IC50 values for compounds of the invention are disclosed in Table 2: Table 2. provides the compounds arranged according to […] determined in a time resolved fluorescence (TRF) assay. The compounds are separated into four groups: […]
The IC50 is the concentration that gives 50% inhibition. Turning to `O=C(NO)c1ccc2c(c1)N(CC1CCc3ccccc3O1)C(=O)CO2` (racemic) [Compound I-184, (+/−)-4-(chroman-2-ylmethyl)-N-hydroxy-3-oxo-3,4-dihydro-2H-benzo[b][1,4]oxazine-6-carboxamide], the IC50 fell in the range of 25 to 100 nM. With `O=C(NO)c1ccc2c(c1)N(CC1COc3ccccc3O1)C(=O)CO2` (racemic) [Compound I-185, (+/−)-4-((2,3-dihydrobenzo[b][1,4]dioxin-2-yl)methyl)-N-hydroxy-3-oxo-3,4-dihydro-2H-benzo[b][1,4]oxazine-6-carboxamide] the figure was no more than 25 nM; with `O=C(NO)c1ccc2c(c1)N(Cc1ccc(C(=O)N3CCCCC3)cc1)C(=O)CO2` [Compound I-150, N-hydroxy-3-oxo-4-(4-(piperidine-1-carbonyl)benzyl)-3,4-dihydro-2H-benzo[b][1,4]oxazine-6-carboxamide], 25 to 100 nM; with `COc1ccc(CN2C(=O)COc3c(F)cc(C(=O)NO)cc32)cc1` [Compound I-163, 8-fluoro-N-hydroxy-4-(4-methoxybenzyl)-3-oxo-3,4-dihydro-2H-benzo[b][1,4]oxazine-6-carboxamide], 25 to 100 nM. The value for `O=C(NO)c1cc(F)c2c(c1)N(Cc1ccc(-n3cccn3)cc1)C(=O)CO2` [Compound I-164, 4-(4-(1H-pyrazol-1-yl)benzyl)-8-fluoro-N-hydroxy-3-oxo-3,4-dihydro-2H-benzo[b][1,4]oxazine-6-carboxamide] was 25 to 100 nM. The value for `COc1ccc(CN2C(=O)OCc3ccc(C(=O)NO)cc32)cc1` [Compound I-165, N-hydroxy-1-(4-methoxybenzyl)-2-oxo-2,4-dihydro-1H-benzo[d][1,3]oxazine-7-carboxamide] was no more than 25 nM; that for `O=C(NO)c1ccc2c(c1)N(Cc1ccc(-n3cccn3)cc1)C(=O)OC2` [Compound I-166, 1-(4-(1H-pyrazol-1-yl)benzyl)-N-hydroxy-2-oxo-1,4-dihydro-2H-benzo[d][1,3]oxazine-7-carboxamide] was no more than 25 nM. Consider `COc1ccc(CN2CC(C(=O)N(C)C)Oc3ccc(C(=O)NO)cc32)cc1` (centres unmarked) [Compound I-169, N6-hydroxy-4-(4-methoxybenzyl)-N2,N2-dimethyl-3,4-dihydro-2H-benzo[b][1,4]oxazine-2,6-dicarboxamide], for which the IC50 lay within 25 to 100 nM. With `CNC(=O)C1CN(Cc2ccc(OC)cc2)c2cc(C(=O)NO)ccc2O1` (centres unmarked) [Compound I-170, N^6-hydroxy-4-(4-methoxybenzyl)-N^2-methyl-3,4-dihydro-2H, benzo[b][1,4]oxazine-2,6-dicarboxamide] the figure was 25 to 100 nM; with `COc1ccc(CN2CC(C(=O)N3CCOCC3)Oc3ccc(C(=O)NO)cc32)cc1` (centres unmarked) [Compound I-171, N-hydroxy-4-(4-methoxybenzyl)-2-(morpholine-4-carbonyl)-3,4-dihydro-2H-benzo[b][1,4]oxazine-6-carboxamide], 25 to 100 nM; with `COc1ccc(CN2CC(C(=O)NC3CCOCC3)Oc3ccc(C(=O)NO)cc32)cc1` (centres unmarked) [Compound I-172, N6-hydroxy-4-(4-methoxybenzyl)-N2-(tetrahydro-2H-pyran-4-yl)-3,4-dihydro-2H-benzo[b][1,4]oxazine-2,6-dicarboxamide], 25 to 100 nM. The value for `O=C(NO)c1ccc2c(c1)N(Cc1cnc3c(c1)OCCO3)C(=O)CO2` [Compound I-173, 4-((2,3-dihydro-[1,4]dioxino[2,3-b]pyridin-7-yl)methyl)-N-hydroxy-3-oxo-3,4-dihydro-2H-benzo[b][1,4]oxazine-6-carboxamide] was 25 to 100 nM; that for `O=C(NO)c1ccc2c(c1)N(Cc1ccc(-n3cncn3)cc1)C(=O)CO2` [Compound I-175, 4-(4-(1H-1,2,4-triazol-1-yl)benzyl)-N-hydroxy-3-oxo-3,4-dihydro-2H-benzo[b][1,4]oxazine-6-carboxamide] was no more than 25 nM. As to `O=C(NO)c1ccc2c(c1)N(Cc1ccc(N3CCCC3)cc1)C(=O)CO2` [Compound I-176, N-hydroxy-3-oxo-4-(4-(pyrrolidin-1-yl)benzyl)-3,4-dihydro-2H-benzo[b][1,4]oxazine-6-carboxamide], the IC50 is no more than 25 nM. Consider `O=C(NO)c1ccc2c(c1)N(Cc1ccc(N3CCOCC3)cc1)C(=O)CO2` [Compound I-177, N-hydroxy-4-(4-morpholinobenzyl)-3-oxo-3,4-dihydro-2H-benzo[b][1,4]oxazine-6-carboxamide], for which the IC50 lay in the range of 25 to 100 nM.

On to `O=C(NO)c1ccc2c(c1)N(Cc1cnc(-c3ccccc3)o1)C(=O)CO2` [Compound I-178, N-hydroxy-3-oxo-4-((2-phenyloxazol-5-yl)methyl)-3,4-dihydro-2H-benzo[b][1,4]oxazine-6-carboxamide], for which the IC50 is no more than 25 nM.

`O=C(NO)c1ccc2c(c1)N(Cc1coc(-c3ccccc3)n1)C(=O)CO2` [Compound I-179, N-hydroxy-3-oxo-4-((2-phenyloxazol-4-yl)methyl)-3,4-dihydro-2H-benzo[b][1,4]oxazine-6-carboxamide]: the IC50 is no more than 25 nM. `O=C(NO)c1ccc2c(c1)N(Cc1cnn(-c3ccccc3)n1)C(=O)CO2` [Compound I-180, N-hydroxy-3-oxo-4-((2-phenyl-2H-1,2,3-triazol-4-yl)methyl)-3,4-dihydro-2H-benzo[b][1,4]oxazine-6-carboxamide]: the IC50 was no more than 25 nM. Take `CC(C)(C)OC(=O)N1CCc2cc(CN3C(=O)COc4ccc(C(=O)NO)cc43)ccc2C1` [Compound I-181, tert-butyl 6-((6-(hydroxycarbamoyl)-3-oxo-2,3-dihydrobenzo[b][1,4]oxazin-4-yl)methyl)-3,4-dihydroisoquinoline-2(1H)-carboxylate]: the IC50 is no more than 25 nM. The value for `CN1CCCc2cc(CN3C(=O)COc4ccc(C(=O)NO)cc43)ccc21` [Compound I-182, N-hydroxy-4-((1-methyl-1,2,3,4-tetrahydroquinolin-6-yl)methyl)-3-oxo-3,4-dihydro-2H-benzo[b][1,4]oxazine-6-carboxamide] was 25 to 100 nM.

On to `CN1C(=O)CCc2cc(CN3C(=O)COc4ccc(C(=O)NO)cc43)ccc21` [Compound I-183, N-hydroxy-4-((1-methyl-2-oxo-1,2,3,4-tetrahydroquinolin-6-yl)methyl)-3-oxo-3,4-dihydro-2H-benzo[b][1,4]oxazine-6-carboxamide], for which the IC50 was no more than 25 nM.

For the compound `CC(=O)Nc1ccc(CN2C(=O)COc3ccc(C(=O)NO)cc32)cc1` [Compound I-186, 4-(4-acetamidobenzyl)-N-hydroxy-3-oxo-3,4-dihydro-2H-benzo[b][1,4]oxazine-6-carboxamide], the IC50 is no more than 25 nM. The value for `O=C(NO)c1ccc2c(c1)N(Cc1ccc(-n3ccnc3)cc1)C(=O)CO2` [Compound I-187, 4-(4-(1H-imidazol-1-yl)benzyl)-N-hydroxy-3-oxo-3,4-dihydro-2H-benzo[b][1,4]oxazine-6-carboxamide] was no more than 25 nM; that for `O=C(NO)c1ccc2c(c1)N(Cc1ccc(N3CCCC3=O)cc1)C(=O)CO2` [Compound I-188, N-hydroxy-3-oxo-4-(4-(2-oxopyrrolidin-1-yl)benzyl)-3,4-dihydro-2H-benzo[b][1,4]oxazine-6-carboxamide] was 25 to 100 nM. With `CN(C)S(=O)(=O)c1ccc(CN2C(=O)COc3ccc(C(=O)NO)cc32)cc1` [Compound I-189, 4-(4-(N,N-dimethylsulfamoyl)benzyl)-N-hydroxy-3-oxo-3,4-dihydro-2H-benzo[b][1,4]oxazine-6-carboxamide] the figure was no more than 25 nM. The value for `O=C(NO)c1ccc2c(c1)N(Cc1ccc(C(=O)N3CCOCC3)cc1)C(=O)CO2` [Compound I-190, N-hydroxy-4-(4-(morpholine-4-carbonyl)benzyl)-3-oxo-3,4-dihydro-2H-benzo[b][1,4]oxazine-6-carboxamide] was 25 to 100 nM; that for `O=C(NO)c1ccc2c(c1)N(Cc1ncc(-c3ccccc3)o1)C(=O)CO2` [Compound I-191, N-hydroxy-3-oxo-4-((5-phenyloxazol-2-yl)methyl)-3,4-dihydro-2H-benzo[b][1,4]oxazine-6-carboxamide] was no more than 25 nM; that for `O=C(NO)c1ccc2c(c1)N(Cc1ccc(C(=O)N3CCCC3)cc1)C(=O)CO2` [Compound I-192, N-hydroxy-3-oxo-4-(4-(pyrrolidine-1-carbonyl)benzyl)-3,4-dihydro-2H-benzo[b][1,4]oxazine-6-carboxamide] was 25 to 100 nM. As for `O=C(NO)c1ccc2c(c1)N(Cc1ncn(-c3ccccc3)n1)C(=O)CO2` [Compound I-193, N-hydroxy-3-oxo-4-((1-phenyl-1H-1,2,4-triazol-3-yl)methyl)-3,4-dihydro-2H-benzo[b][1,4]oxazine-6-carboxamide], the IC50 was in the range of 25 to 100 nM.
